Assay results reported in patent US20210253562A1, “ACYLSUFONAMIDE COMPOUNDS USEFUL AS EP3 RECEPTOR ANTAGONISTS” (Janssen Pharmaceutica NV, priority 2018, published 2021).
Like-named read-outs stand apart in the source and are kept apart here.

How the values were obtained:
[1] = target: T1, EP3 membrane (EP3 receptor) (Homo sapiens, UniProt P43115); experiment: [3H]-PGE2 binding; EP3 competition binding (SPA)
T1 construct: purchased Millipore HTS092M
T1 sequence (P43115 1-390): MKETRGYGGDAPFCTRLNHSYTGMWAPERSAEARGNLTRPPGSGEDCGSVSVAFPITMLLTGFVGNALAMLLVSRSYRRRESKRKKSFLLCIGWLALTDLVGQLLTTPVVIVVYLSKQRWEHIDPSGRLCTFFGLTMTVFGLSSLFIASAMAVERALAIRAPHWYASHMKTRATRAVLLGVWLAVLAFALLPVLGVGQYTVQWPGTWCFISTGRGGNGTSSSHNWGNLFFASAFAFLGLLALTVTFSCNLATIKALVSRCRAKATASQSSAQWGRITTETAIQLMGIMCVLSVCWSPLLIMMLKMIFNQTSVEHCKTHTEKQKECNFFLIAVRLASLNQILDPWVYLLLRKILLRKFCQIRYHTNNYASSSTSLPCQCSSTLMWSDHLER
Method in brief: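 Ki derived from one-site nonlinear regression of scintillation proximity counts after 2 h room-temperature equilibration. Serially diluted (1:3) compounds competed against [3H]-PGE2 (2 nM) for EP3 receptor membranes (2 μg/well) in pH 7.4 Tris buffer with 10 mM MgCl2, 1 mM EDTA, 0.1% DMSO.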

[2] = target: T2, CHO cells over-expressing the EP3 receptor (Homo sapiens, UniProt P43115); experiment: CHO cell cAMP assay; EP3 cAMP antagonist dose response (sulprostone reference), HTRF; format: cell-based; details: sulprostone 700 nM (EC80) and FSK 2 μM (EC70); read-out: CHO_cAMP IC50
T2 construct: expressed in transfected cells; host or cells: CHO cells
T2 sequence (P43115 1-390): T1 sequence (P43115 1-390)
Method in brief: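 EP3-overexpressing CHO cells pre-incubated with test compound, then stimulated 30 min at 37 °C with FSK (2 μM, EC70) plus sulprostone (700 nM, EC80); antagonism seen as restored cAMP. cAMP measured by HTRF 665/615 ratio, converted via on-plate standard curve. IC50 from Hill fit of 11-point dosing.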

male Sprague Dawley rats = experiment: IV infused EP3 antagonists on circulating insulin and glucose in the sulprostone infusion IVGTT model; format: in vivo, rat; details: SD rats, 2.1 mg/kg bolus followed by 3.09 mg/kg/hour infusion
From the text: Biological Example 3: IV Infused EP3 Antagonists on Circulating Insulin and Glucose in the Sulprostone Infusion IVGTT Model
Jugular vein and carotid artery cannulated male Sprague Dawley rats (˜250 g, available from Charles River) were housed one rat per suspended cage in a temperature-controlled room with 12-hour light/dark cycle. The rats were allowed ad libitum access to water and maintained on a regular diet. Animals were acclimated for minimum 5 days prior to the start of the experiment. Experimental procedures were carried out in accordance with institutional standards for animal care and were approved by the institute's animal care and use committee.
A blood sample for insulin and blood chemistry was collected at 20 min (t=−20) prior to the start of dosing with sulprostone and/or test compound (EP3 antagonist). […]
Blood samples from all animals were collected into Heparin treated tubes. Background was measured via a glucometer at the 0 and 2 min time points to ensure that the animal received the glucose bolus. Plasma insulin was measured via a Meso Scale Discovery metabolic assay (available from Meso Scale). Plasma glucose, free fatty acid (FFA), triglycerides, cholesterol and ketones were measured on an OLYMPUS AU400E chemistry analyzer. Observations on animal health were recorded throughout the procedure. […]

SMILES | Ki [1] [nM] | IC50 [2] [nM] | Ki ([1]; unit nM) [nM] | suppression of glucose stimulated insulin secretion (GSIS) by sulprostone (male Sprague Dawley rats)
O=C(NC/C(F)=C1\CCCc2cnn(Cc3ccc(C(F)(F)F)cc3)c21)NS(=O)(=O)c1cc2ccccc2s1 [Compound #133, (Z)—N-((2-fluoro-2-(1-(4-(trifluoromethyl)benzyl)-1,4,5,6-tetrahydro-7H-indazol-7-ylidene)ethyl)carbamoyl)benzo[b]thiophene-2-sulfonamide] | 289 | 1260 | – | –
O=C(NC/C(F)=C1/CCCn2nnc(Cc3ccccc3)c21)NS(=O)(=O)c1cc(Cl)c(Cl)s1 [Compound #135, (E)-N-((2-(3-benzyl-6,7-dihydro-[1,2,3]triazolo[1,5-a]pyridin-4(5H)-ylidene)-2-fluoroethyl)carbamoyl)-4,5-dichlorothiophene-2-sulfonamide] | 472 | 4600 | – | –
O=C(NC/C(F)=C1/CCc2cnn(-c3ccc(C(F)(F)F)cc3)c21)NS(=O)(=O)c1cc(Cl)c(Cl)s1 [Compound #137, (E)-4,5-dichloro-N-((2-fluoro-2-(1-(4-(trifluoromethyl)phenyl)-4,5-dihydrocyclopenta[c]pyrazol-6(1H)-ylidene)ethyl)carbamoyl)thiophene-2-sulfonamide] | 220 | 488 | – | –
O=C(NC/C=C1\CCCc2cnn(Cc3cnc(-c4ccccc4)nc3)c21)NS(=O)(=O)c1cc(Cl)c(Cl)s1 [Compound #138, (E)-4,5-dichloro-N-((2-(1-((2-phenylpyrimidin-5-yl)methyl)-1,4,5,6-tetrahydro-7H-indazol-7-ylidene)ethyl)carbamoyl)thiophene-2-sulfonamide] | – | 6 | 0.4 | –
O=C(NC/C=C1\CCCc2cnn(C3CCN(c4ccccn4)CC3)c21)NS(=O)(=O)c1cc(Cl)c(Cl)s1 [Compound #140, (E)-4,5-dichloro-N-((2-(1-(1-(pyridin-2-yl)piperidin-4-yl)-1,4,5,6-tetrahydro-7H-indazol-7-ylidene)ethyl)carbamoyl)thiophene-2-sulfonamide] | 8 | 12 | – | –
O=C(NC/C(F)=C1\COCc2[nH]nc(Cc3ccc(Cl)cc3Cl)c21)NS(=O)(=O)c1cc(Cl)c(Cl)s1 [Compound #147, (E)-4,5-dichloro-N-((2-(3-(2,4-dichlorobenzyl)-1,7-dihydropyrano[3,4-c]pyrazol-4(5H)-ylidene)-2-fluoroethyl)carbamoyl)thiophene-2-sulfonamide] | – | 5 | 0.4 | –
Cn1cc(S(=O)(=O)NC(=O)NC/C=C2\CCCc3cnn(Cc4ccc(Cl)cc4Cl)c32)cn1 [Compound #152, (E)-N-((2-(1-(2,4-dichlorobenzyl)-1,4,5,6-tetrahydro-7H-indazol-7-idene)ethyl)carbamoyl)-1-methyl-1H-pyrazole-4-sulfonamide] | 9 | 8 | – | –
O=C(NC/C=C1\CCCn2nnc(-c3ccc(C(F)(F)F)cc3)c21)NS(=O)(=O)c1cc(Cl)c(Cl)s1 [Compound #155, (E)-4,5-dichloro-N-((2-(3-(4-(trifluoromethyl)phenyl)-6,7-dihydro-[1,2,3]triazolo[1,5-a]pyridin-4(5H)-ylidene)ethyl)carbamoyl)thiophene-2-sulfonamide] | 2 | 4 | – | –
O=C(NS(=O)(=O)c1ccc(Cl)cc1)OC/C=C1\CCCc2cnn(-c3ncccn3)c21 [compound 95] | > 10000 | > 20000 | – | –
O=C(NS(=O)(=O)c1ccc(Cl)cc1)OC/C(F)=C1/COCc2cnn(-c3cccc(C(F)(F)F)c3)c21 [compound 108] | > 10000 | > 20000 | – | –

Continued, in another order:

Ki [1] [nM] | IC50 [2] [nM] | Ki ([1]; unit nM) [nM] | SMILES | suppression of glucose stimulated insulin secretion (GSIS) by sulprostone (male Sprague Dawley rats)
4 | 12 | – | O=C(NC/C=C1\CCCc2cnn(Cc3ccc(Cl)cc3Cl)c21)NS(=O)(=O)c1ccc(Cl)cc1 [Compound #4, (E)-4-chloro-N-((2-(1-(2,4-dichlorobenzyl)-1,4,5,6-tetrahydro-7H-indazol-7-ylidene)ethyl)carbamoyl)benzenesulfonamide] | reverse suppression of glucose stimulated insulin secretion (GSIS) by sulprostone
7 | 52 | – | O=C(NC/C(F)=C1\CCCc2cnn(Cc3ccc(C(F)(F)F)cc3)c21)NS(=O)(=O)c1cc(Cl)c(Cl)s1 [Compound #134, (Z)-4,5-dichloro-N-((2-fluoro-2-(1-(4-(trifluoromethyl)benzyl)-1,4,5,6-tetrahydro-7H-indazol-7-ylidene)ethyl)carbamoyl)thiophene-2-sulfonamide] | –
5 | 46 | – | O=C(NC/C(F)=C1\CCc2cnn(Cc3ccc(Cl)cc3Cl)c21)NS(=O)(=O)c1cc(Cl)c(Cl)s1 [Compound #136, (Z)-4,5-dichloro-N-((2-(1-(2,4-dichlorobenzyl)-4,5-dihydro-cyclopenta[c]pyrazol-6(1H)-ylidene)-2-fluoroethyl)carbamoyl)thiophene-2-sulfonamide] | –
7 | 9 | – | Cc1ncc(S(=O)(=O)NC(=O)NC/C=C2\CCCc3cnn(Cc4ccc(Cl)cc4Cl)c32)s1 [Compound #139, (E)-N-((2-(1-(2,4-dichlorobenzyl)-1,4,5,6-tetrahydro-7H-indazol-7-ylidene)ethyl)carbamoyl)-2-methylthiazole-5-sulfonamide] | –
215 | 750 | – | COc1ccc(Cn2ncc3c2/C(=C(\F)CNC(=O)NS(=O)(=O)c2cc(Cl)c(Cl)s2)CCC3)cn1 [Compound #141, (Z)-4,5-dichloro-N-((2-fluoro-2-(1-((6-methoxypyridin-3-yl)methyl)-1,4,5,6-tetrahydro-7H-indazol-7-ylidene)ethyl)carbamoyl)thiophene-2-sulfonamide] | –
3 | 18 | – | COc1ccc(S(=O)(=O)NC(=O)NC/C(F)=C2\CCCc3cnn(Cc4ccc(Cl)cc4Cl)c32)cc1Cl [Compound #143, (Z)-3-chloro-N-((2-(1-(2,4-dichlorobenzyl)-1,4,5,6-tetrahydro-7H-indazol-7-ylidene)-2-fluoroethyl)carbamoyl)-4-methoxybenzenesulfonamide] | –
2 | 6 | – | Cc1cc(S(=O)(=O)NC(=O)NC/C(F)=C2\CCCc3cnn(Cc4ccc(Cl)cc4Cl)c32)sc1Cl [Compound #149, (Z)-5-chloro-N-((2-(1-(2,4-dichlorobenzyl)-1,4,5,6-tetrahydro-7H-indazol-7-ylidene)-2-fluoroethyl)carbamoyl)-4-methylthiophene-2-sulfonamide] | –
2 | 4 | – | Cc1nc(C)c(S(=O)(=O)NC(=O)NC/C=C2\CCCc3cnn(Cc4ccc(Cl)cc4Cl)c32)s1 [Compound #150, (E)-N-((2-(1-(2,4-dichlorobenzyl)-1,4,5,6-tetrahydro-7H-indazol-7-ylidene)ethyl)carbamoyl)-2,4-dimethylthiazole-5-sulfonamide] | –
2 | 4 | – | O=C(NC/C(F)=C1\CCCc2cnn(Cc3ccc(Cl)cc3Cl)c21)NS(=O)(=O)c1ccc(F)c(F)c1 [Compound #156, (Z)—N-((2-(1-(2,4-dichlorobenzyl)-1,4,5,6-tetrahydro-7H-indazol-7-ylidene)-2-fluoroethyl)carbamoyl)-3,4-difluorobenzenesulfonamide] | –
